Measured values as given in publication PMC5641094, “A peptide antagonist of Prep1-p160 interaction improves ceramide-induced insulin resistance in skeletal muscle cells” (Oncotarget, 2017).
Each block holds one molecule with its values, some of them ahead of it. Ends that are not written are not given here. * marks the point of attachment. Biotin = O=C1N[C@H]2[C@H](CS[C@H]2CCCCC(=O)*)N1

What was measured:
Prep1 mRNA = assay: Real-time RT-PCR of Prep1 mRNA in L6 cells; type: cell-based, rat; conditions: preliminary data
Method: (§1) Figure 2 Effect of ceramides on Prep1 and p160 mRNA expression and of Prep1-p160 coprecipitation L6 cells were treated with C2cer (10μM) for 18h and Prep1 (A) or p160 (B) mRNA levels were analyzed by real-time RT-PCR analysis. Data were normalized by the amount of GAPDH mRNA, used as internal control. Bars represent the mean ± SD of three independent experiments, each performed in triplicate. (C) L6 cells were treated with cycloheximide (CHX) at 40μg/mL concentration for 18h and the lysates were analyzed by Western blot with anti-p160 and beta-actin. The autoradiograph shown is representative of three different experiments and subjected to densitometric analysis. (D) Protein lysates from L6 cells treated with C2cer as indicated, were immunoprecipitated with Prep1 antibody and immunoblotted with p160 or Prep1 antibodies. The autoradiograph shown is representative of three different experiments and subjected to densitometric analysis. Asterisks denote statistically significant differences (*p<0.05; **p<0.01).
Total cellular RNA was isolated from L6 cells by using the RNeasy kit (QIAGEN Sciences, Germany), according to manufacturer instructions. 1μg of cell RNA was reverse-transcribed using Superscript III Reverse Transcriptase (Life Technologies Carlsbad, CA, USA). PCR reactions were analyzed using IQTM SYBR Green Supermix (Bio-Rad, Hercules, CA). […]

[1] = test system: IR tyrosine phosphorylation; assay: IR tyrosine phosphorylation, immunoprecipitation and Western blot; type: cell-based, rat; conditions: L6 cells, insulin 100nM
Method: (§2) Figure 4 Prep1(54-72) peptide restores the insulin signaling inhibited by C2cer and Prep1 L6 cells were stimulated with insulin (100nM) and incubated with Prep1(54-72) in presence of C2cer at 10μM for 18h (A-B) or stable transfection of Prep1 (C-D). Protein lysates were immunoprecipitated with specific IR or IRS1 antibodies and analyzed by Western blot using antibodies for phosphotyrosines (pY) and beta-actin as loading control. Blots were detected by ECL and autoradiography. The autoradiographs are representative of three independent experiments. Asterisks denote statistically significant differences (*p<0.05; **p<0.01).
(§3) Total cell lysates were obtained and separated by SDS-PAGE. Briefly, cells were solubilized with lysis buffer containing 50mM HEPES, 150mM NaCl, 10mM EDTA, 10mM Na4P2O7, 2mM sodium orthovanadate, 50mM NaF, 1mM phenylmethylsulfonyl fluoride, 10μg/ml aprotinin, 10μg/ml leupeptin, pH 7.4, and 1% (v/v) Triton X-100. Lysates were clarified by centrifugation at 12,000g for 20 minutes at 4°C. The protein concentrations in the cell lysates were measured using a Bio-Rad DC (detergent compatible) assay. Immunoprecipitation and Western blot analysis have been performed as previously described.

[2] = test system: IRS1 tyrosine phosphorylation; assay: IRS1 tyrosine phosphorylation, immunoprecipitation and Western blot; type: cell-based, rat; conditions: L6 cells, insulin 100nM
Method: as §2, §3

L6 cells [3] = assay: Glycogen content in L6 cells; type: cell-based, rat; conditions: insulin 100nM, mean of three experiments
Method: (§4) Figure 6 Effect of Prep1(54-72) peptide on glycogen content and 2-DG uptake L6 control and Prep1 overexpressing cells were stimulated with Insulin (100nM) and/or C2cer (10μM) and incubated with Prep1(54-72). (A) Glycogen content and (B) 2-DG uptake were measured as described in methods. Bars represent the mean ± SD of three independent experiments. Asterisks denote statistically significant differences (*p<0.05; **p<0.01; ***p<0.001).
(§5) Glycogen was isolated from L6 cells homogenized in 0.1% SDS, saturated with Na2SO4 for 30 minutes at 37°C, followed by ethanol (EtOH) precipitation. Glycogen content was determined as previously described. 2-DG uptake by the L6 cells was measured as previously reported.

L6 cells [4] = assay: 2-DG uptake in L6 cells; type: cell-based, rat; conditions: insulin 100nM, mean of three experiments
Method: as §4, §5

[5] = test system: Prep1 and p160 protein levels in L6 cells; assay: Western blot of Prep1 and p160 protein levels in L6 cells; type: cell-based, rat; conditions: CHX 40μg/ml, 18h
Method: Figure 1 Effect of ceramides dose-response and time-course on Prep1 and p160 protein levels L6 skeletal muscle cells were treated with different concentration of C2cer (10μM and 100μM for 18h) (A) and for different time (10μM for 6h and 18h) (B). Protein lysates were analyzed by Western blot using antibodies for Prep1, p160 and for the beta-actin, as a loading control. Blots were detected by ECL and autoradiography. The autoradiographs are representative of four independent experiments. Asterisks denote statistically significant differences (*p<0.05; **p<0.01).
as §1
Figure 3 Design and in vitro effects of Prep1(54-72) peptide on Prep1/p160 association (A) Binding curves of Prep1(59-72) and Prep1(54-72) peptides to p160_20-160 by ELISA-like assays. Biotinylated peptides at several concentrations were added in triplicate to a 96-well plate coated with p160_20-160 (0.1μM). Experiments were performed at least twice and the average results fitted using GraphPad Prism. […] (B) Competition binding experiments. His6-tagged-p160_20-160 at 0.25μM was incubated with Prep1(59-72) and Prep1(54-72) at concentrations ranging between 0.001÷10μM and added to a 96-well plate coated with Prep1_45-155 (0.10μM). Results are the average of three independent experiments. (C) L6 cells were incubated with increasing concentrations of the fluorescein-conjugated peptide (FITC-Prep1(54-72)) and peptide uptake was detected by FACS analysis of fluorescein-labeled cells. Bars represent the mean ± SD of four independent experiments. (D) L6 muscle cells incubated with Prep1(54-72) were stimulated with C2cer (10μM) for 18h. Protein lysates were immunoprecipitated with Prep1 antibodies and analyzed by Western blot using antibodies for p160 or for Prep1. (E) An aliquot of the lysate was used to measure protein expression of Prep1 and p160 and the beta-actin used as loading control. The blots were detected by ECL and autoradiography. The autoradiograph is representative of three independent experiments. Asterisks denote statistically significant differences (*p<0.05; **p<0.01).
L6 rat skeletal muscle cells (ATCC, Manassas, VA, USA) were cultured in DMEM supplemented with 10% FBS and 1% penicillin/streptomycin solution at 37°C in a humidified 95% air and 5% CO2 atmosphere (all vol./vol.). […]
Total cell lysates were obtained and separated by SDS-PAGE. […] The protein concentrations in the cell lysates were measured using a Bio-Rad DC (detergent compatible) assay. […]

p160_20-160 = biological target: T1, p160_20-160 (Homo sapiens, UniProt Q9BQG0); assay: ELISA-like direct binding of biotinylated Prep1 peptides to coated p160_20-160; conditions: N-terminally biotinylated peptide variants; plate coated with p160_20-160 (0.1μM); streptavidin-HRP; one-site binding fit; triplicate, performed at least twice
T1 construct: were added to a plate coated with p160_20-160 (0.1μM); His6; made in house
T1 sequence (Q9BQG0 20-160): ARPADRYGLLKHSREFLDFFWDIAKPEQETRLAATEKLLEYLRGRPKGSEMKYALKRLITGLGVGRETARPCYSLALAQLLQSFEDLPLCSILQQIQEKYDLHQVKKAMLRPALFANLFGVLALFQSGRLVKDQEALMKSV
Excerpt: To address the significance of the association between Prep1 and p160 mediated by C2cer, we generated a synthetic inhibitor of the Prep1/p160 interaction. […] The synthetic peptide covering such stretch of residues was therefore chosen to generate a potential inhibitor. […] Thus, we designed and chemically synthesized a peptide spanning residues 59-72, hereafter Prep1(59-72), which comprises the predicted α-helix and a short loop at the N-terminus (Supplementary Figure 2A, upper panel). […]
(§6) Figure 3 Design and in vitro effects of Prep1(54-72) peptide on Prep1/p160 association (A) Binding curves of Prep1(59-72) and Prep1(54-72) peptides to p160_20-160 by ELISA-like assays. […] (C) L6 cells were incubated with increasing concentrations of the fluorescein-conjugated peptide (FITC-Prep1(54-72)) and peptide uptake was detected by FACS analysis of fluorescein-labeled cells. […] Protein lysates were immunoprecipitated with Prep1 antibodies and analyzed by Western blot using antibodies for p160 or for Prep1. […] The blots were detected by ECL and autoradiography. […]
ELISA experiments were performed using an integrated platform for High-Throughput Screening (Hamilton Robotics, Bonaduz, CH) comprising a fully equipped Starlet 8 channel liquid handler, a robotic arm, a washer and a multi-wavelength plate reader. […] The binding was detected by anti-His HRP-conjugated antibody. […]

[6] = biological target: T2, p160_20-160/Prep1_45-155 binding (Homo sapiens, UniProt Q9BQG0); assay: ELISA-like competition of p160_20-160/Prep1_45-155 binding; conditions: His6-p160_20-160 0.25μM pre-incubated with peptide 0.001-10μM; plate coated with Prep1_45-155 (0.10μM); anti-His HRP; average of three experiments
T2 construct: pre-incubating the His6-tagged-p160_20-160 at 0.25μM with peptides; made in house
T2 sequence (Q9BQG0 20-160): T1 sequence (Q9BQG0 20-160)
Excerpt: To address the significance of the association between Prep1 and p160 mediated by C2cer, we generated a synthetic inhibitor of the Prep1/p160 interaction. […] The synthetic peptide covering such stretch of residues was therefore chosen to generate a potential inhibitor. […] Thus, we designed and chemically synthesized a peptide spanning residues 59-72, hereafter Prep1(59-72), which comprises the predicted α-helix and a short loop at the N-terminus (Supplementary Figure 2A, upper panel). We also designed and prepared an additional peptide with a slightly longer N-terminal end, named Prep1(54-72) (Supplementary Figure 2A, lower panel), to increase the probability of obtaining a molecule with helical features. […] In order to test the affinity of Prep1 synthetic peptides to p160 protein, ELISA-like experiments were developed where N-terminally biotinylated peptide variants were added to p160_20-160 – coated 96-well plates. As shown in Figure 3A either variants bound p160_20-160 domain in a dose-dependent and saturable manner. […]
as §6
ELISA experiments were performed using an integrated platform for High-Throughput Screening (Hamilton Robotics, Bonaduz, CH) comprising a fully equipped Starlet 8 channel liquid handler, a robotic arm, a washer and a multi-wavelength plate reader. […] In particular, several concentrations of biotinylated peptides at several concentrations were added to a plate coated with p160_20-160 (0.1μM) and binding was detected with streptavidin-HRP. […] The binding was detected by anti-His HRP-conjugated antibody. […]

His6-tagged p160(20-160) = biological target: T3, His6-tagged p160(20-160) (UniProt Q7TPV4 20-160); assay: ELISA; ELISA-like direct binding: 96-well plate coated with p160(20-160) (0.1 uM); biotinylated peptides at several concentrations added in triplicate; detection with streptavidin-HRP; one-site binding fit (GraphPad Prism); conditions: both partners purified
T3 construct: also called His6-p160(20-160); p160(20-160) domain
T3 sequence (looked up): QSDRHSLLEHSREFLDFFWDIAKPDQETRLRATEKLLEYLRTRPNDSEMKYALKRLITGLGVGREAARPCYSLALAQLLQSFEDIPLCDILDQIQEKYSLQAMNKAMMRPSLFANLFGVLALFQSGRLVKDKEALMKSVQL

Molecule: Cc1ccc(NCCCc2ccccc2)c(N)c1 [JSH-23]
effect on C2cer-induced Prep1 mRNA expression (Prep1 mRNA): reverts the effect of C2cer

Molecule: insulin: insulin used at 100nM to stimulate L6 cells
stimulation of IR tyrosine phosphorylation [1]: 1.5 fold | stimulation of IRS1 tyrosine phosphorylation [2]: 1.1 fold | stimulation of glycogen synthesis (L6 cells [3]): 1.3 fold | stimulation of glucose uptake (2-DG) (L6 cells [4]): 2.1 fold

Molecule: C[C@@H]1C[C@@H]([C@H](O)CC2CC(=O)NC(=O)C2)C(=O)[C@@H](C)C1 [cycloheximide (CHX), cycloheximide]
reduction of p160 cellular levels [5]: 50%

Continued, values first:

Kd (p160_20-160): 1250 nM | IC50, inhibition of p160_20-160/Prep1_45-155 binding [6]: did not converge to a meaningful value
Molecule: Ac-RHPLFPLLALLFEK-NH2 [Prep1(59-72)]

Kd (His6-tagged p160(20-160)): 1250 ± 80 nM
B1: N-terminally biotinylated Prep1(59-72) peptide (peptide)
peptide: Biotin-RHPLFPLLALLFEK
notes: Prep1 (Pbx regulating protein 1), stretch of the HR1 domain, named residues 59-72; source: synthetic peptide (Fmoc solid phase, RP-HPLC purified), biotin labelled

Kd (His6-tagged p160(20-160)): 180 ± 40 nM
B2: N-terminally biotinylated Prep1(54-72) peptide (peptide)
peptide: Biotin-KQAIYRHPLFPLLALLFEK
notes: Prep1 (Pbx regulating protein 1), stretch of the HR1 domain, named residues 54-72; source: synthetic peptide (Fmoc solid phase, RP-HPLC purified), biotin labelled
